One experiment has as its target recombinant RSK2 kinase (Homo sapiens (Human), UniProt P51812). Nature of the experiment: LANCE Eu TR-FRET recombinant RSK2 kinase inhibition assay. As to conditions: for IC50: recombinant RSK2, 3 μM ATP, mean ± S.D. (n=3). Format: biochemical. The method, then:
All reagents were prepared in kinase buffer containing 2 mM DTT, 50 mM HEPES, 1 mM EGTA, 10 mM MgCl2, 0.01% Tween 20, pH 7.5. […] RSK2 was used at a final concentration of […]. […] Assays were performed at 25° C. in a reaction mixture consisting of 2 μL serially diluted inhibitor solution, 4 μL kinase, 2 μL substrate, and 2 μL ATP. Reagents were incubated at room temperature for 1 h before the reaction was stopped through the addition of 5 μL of EDTA at a final concentration of 10 mM.
The exemplary compounds were evaluated for their effect on RSK2 activity in the recombinant TR-FRET kinase inhibition assay and their half-maximal inhibitory potency values (IC50) were calculated using nonlinear regression analysis of the log dose-response.
For orientation: Time-resolved FRET reads energy transfer from a long-lived donor to a nearby acceptor.

The test system of the next experiment is MOLM-13 cells. Nature of the experiment: MTS cellular viability assay in MOLM-13 cells. The class given is cell-based. As to conditions: Homo sapiens, 72 hr, 60 μM to 250 nM, n=3, ±S.D. The method, then:
Cell Culture: MOLM-13 (DSMZ) cells were cultured in RPMI1640 (Gibco) supplemented with 10% FBS (Sigma Aldrich) and 1% penicillin/streptomycin solution (Cellgro) at 37° C. in an incubator humidifier with 95% air and 5% CO2. HEK293 cells (ATCC) were cultured in Dulbecco's Modified Eagle Medium (DMEM; Gibco) supplemented with 10% FBS (Sigma Aldrich) and 1% penicillin/streptomycin solution (Cellgro) at 37° C. in an incubator humidifier with 95% air and 5% CO2. HEK293 cells were allowed to adhere for 24 h prior to use in assays.
MTS Cellular Viability Assay: MOLM-13 cells were seeded into sterile 96-well plates (Corning) at 60,000 cells per well in 100 μL of media. Inhibitor solutions were administered in 50 μL over a concentration range from 60 μM to 247 nM and cells were incubated at 37° C. for 24 to 72 h. Following 3 h incubation with 30 μL CellTiter 96® Aqueous One Cell Proliferation Reagent (Promega), cell viability was measured by formazan concentration assessment through colorimetric analysis using a BioTek Synergy H1 Hybrid plate reader (Absorption=490).
Exemplary compounds were assessed in cell systems for effects on cell viability, as well as their ability to inhibit cellular RSK2 activity.
A general note: Tetrazolium assays rely on reduction of a dye to a coloured formazan, in cell work by metabolically active cells.

As a reminder, the IC50 is the concentration needed to halve the response being measured. What is called EC50 is the concentration needed to bring the measured effect to its halfway point.

Sequence of recombinant RSK2 kinase (P51812 whole entry): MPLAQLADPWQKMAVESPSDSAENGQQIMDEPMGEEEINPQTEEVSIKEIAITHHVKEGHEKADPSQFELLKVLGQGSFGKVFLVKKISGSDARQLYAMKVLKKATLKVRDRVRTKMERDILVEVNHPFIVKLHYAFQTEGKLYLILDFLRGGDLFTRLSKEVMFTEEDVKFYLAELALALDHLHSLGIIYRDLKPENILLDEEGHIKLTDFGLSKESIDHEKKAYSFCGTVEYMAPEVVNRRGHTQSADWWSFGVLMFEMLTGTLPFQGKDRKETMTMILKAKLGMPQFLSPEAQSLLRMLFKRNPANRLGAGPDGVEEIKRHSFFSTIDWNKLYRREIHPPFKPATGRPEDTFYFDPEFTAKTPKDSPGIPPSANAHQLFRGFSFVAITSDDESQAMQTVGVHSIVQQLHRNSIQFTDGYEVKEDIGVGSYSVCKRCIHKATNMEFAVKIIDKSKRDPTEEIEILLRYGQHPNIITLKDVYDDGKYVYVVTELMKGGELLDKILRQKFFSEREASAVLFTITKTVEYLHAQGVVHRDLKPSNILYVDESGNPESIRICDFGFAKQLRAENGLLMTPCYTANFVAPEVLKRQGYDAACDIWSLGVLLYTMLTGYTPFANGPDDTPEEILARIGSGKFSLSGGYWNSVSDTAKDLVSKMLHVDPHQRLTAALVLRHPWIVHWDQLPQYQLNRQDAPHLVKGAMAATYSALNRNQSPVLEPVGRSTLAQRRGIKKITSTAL

`Oc1c(F)cc(Nc2ncc3ncn(-c4cccc(Oc5ccccc5)c4)c3n2)cc1F` [A1-6, 2,6-Difluoro-4-((9-(3-phenoxyphenyl)-9H-purin-2-yl)amino)phenol]: on recombinant RSK2 kinase, the IC50 came to 329 ± 37 nM.

With `Oc1c(F)cc(Nc2ncc3ccn(-c4ccc(N5CCOCC5)cc4)c3n2)cc1F` [A1-16, 2,6-Difluoro-4-((7-(4-morpholinophenyl)-7H-pyrrolo[2,3-d]pyrimidin-2-yl)amino)phenol], on recombinant RSK2 kinase, the concentration for half-maximal inhibition (IC50) was 25.7 ± 2.4 nM. Besides, the EC50 in the experiment with MOLM-13 cells was determined as 230 ± 3 nM.

Take `Oc1cccc(-n2cnc3cnc(Nc4cc(F)c(O)c(F)c4)nc32)c1` [A1-10, 2,6-Difluoro-4-((9-(3-hydroxyphenyl)-9H-purin-2-yl)amino)phenol]: the IC50 at recombinant RSK2 kinase amounted to 79.8 ± 4.6 nM.

On to `CC(C)CCn1cnc2cnc(Nc3cc(F)c(O)c(F)c3)nc21` [A1-2, 2,6-Difluoro-4-((9-isopentyl-9H-purin-2-yl)amino)phenol], for which the half-inhibitory concentration (IC50) on recombinant RSK2 kinase was found to be 55.5 ± 5.6 nM. The EC50 in the experiment on MOLM-13 cells stood at 970 ± 100 nM.

Consider `Oc1c(F)cc(Nc2ncc3ncn(-c4ccc(N5CCOCC5)cc4)c3n2)cc1F` [A1-3, 2,6-Difluoro-4-((9-(4-morpholinophenyl)-9H-purin-2-yl)amino)phenol], for which the half-inhibitory concentration (IC50) on recombinant RSK2 kinase turned out to be 24.6 ± 3 nM.

In the case of `COC(=O)CCc1ccc(-n2cnc3cnc(Nc4cc(F)c(O)c(F)c4)nc32)cc1` [A1-12, Methyl 3-(4-(2-((3,5-difluoro-4-hydroxyphenyl)amino)-9H-purin-9-yl)phenyl)-propanoate], the IC50 at recombinant RSK2 kinase was determined as 15.7 ± 4 nM.

With `Oc1c(F)cc(Nc2ncc3ncn(-c4ccc(CCN5CCOCC5)cc4)c3n2)cc1F` [A1-4, 2,6-Difluoro-4-((9-(4-(2-morpholinoethyl)phenyl)-9H-purin-2-yl)amino)phenol], the concentration for half-maximal inhibition (IC50) at recombinant RSK2 kinase stood at 18.4 ± 4 nM. In the experiment with MOLM-13 cells, the EC50 was 1900 ± 70 nM.

As for `CN1CCN(c2ccc(-n3ccc4cnc(Nc5cc(F)c(O)c(F)c5)nc43)cc2)CC1` [A1-17, 2,6-Difluoro-4-((7-(4-(4-methylpiperazin-1-yl)phenyl)-7H-pyrrolo[2,3-d]pyrimidin-2-yl)amino)phenol], the half-maximal inhibitory concentration (IC50) on recombinant RSK2 kinase worked out at 34.7 ± 1.3 nM. In the experiment on MOLM-13 cells, the half-maximal effective concentration (EC50) amounted to 70 ± 3 nM.

As to `Oc1ccc(-n2cnc3cnc(Nc4cc(F)c(O)c(F)c4)nc32)cc1` [A1-11, 2,6-Difluoro-4-((9-(4-hydroxyphenyl)-9H-purin-2-yl)amino)phenol], the IC50 on recombinant RSK2 kinase was determined as 81.8 ± 0.7 nM.

`Oc1c(F)cc(Nc2ncc3ncn(-c4ccc(Oc5ccccc5)cc4)c3n2)cc1F` [A1-7, 2,6-Difluoro-4-((9-(4-phenoxyphenyl)-9H-purin-2-yl)amino)phenol]: the 50% inhibitory concentration (IC50) at recombinant RSK2 kinase was determined as 148 ± 27 nM.

As to `COC(=O)CCCc1ccc(-n2cnc3cnc(Nc4cc(F)c(O)c(F)c4)nc32)cc1` [A1-13, Methyl 4-(4-(2-((3,5-difluoro-4-hydroxyphenyl)amino)-9H-purin-9-yl)phenyl)butanoate], the concentration for half-maximal inhibition (IC50) on recombinant RSK2 kinase was found to be 17.8 ± 1 nM. On recombinant RSK2 kinase (statement in pharmacophore modeling text), the “activity rank in the recombinant kinase assay” value is “most active molecule”. Also, the EC50 in the experiment with MOLM-13 cells was determined as 13900 ± 700 nM.

For `CC(C)CCn1ccc2cnc(Nc3cc(F)c(O)c(F)c3)nc21` [A1-15, 2,6-Difluoro-4-((7-isopentyl-7H-pyrrolo[2,3-d]pyrimidin-2-yl)amino)phenol], at recombinant RSK2 kinase, the IC50 was determined as 95.8 ± 11 nM. Besides, the EC50 with MOLM-13 cells amounted to 1300 ± 60 nM.

The values above are taken from patent US11851436B2, “Fused bicyclic pyrimidine derivatives and uses thereof” (The Regents of the University of Colorado, A Body Corporate, priority 2021, dated 2023).
